Assay results as given in PMC5045423, “X66, a novel N-terminal heat shock protein 90 inhibitor, exerts antitumor effects without induction of heat shock response” (Oncotarget, 2016).

What was measured:
HSP90α [1] = target: T1, HSP90α (Homo sapiens, UniProt P07900); assay: SPR (BIAcore […], immobilized full-length HSP90α); also competes with Biotin-X66 for the N-terminal domain in pull-down; format: binding; set-up: gene HSP90AA1; recombinant human full-length HSP90α
HSP90α [2] = target: T1, HSP90α; assay: streptavidin pull-down of purified full-length HSP90α and NTD, competed by excess soluble X66; format: binding; set-up: gene HSP90AA1; recombinant human full-length protein and its N-terminal fragment, but not the C-terminal fragment

Compound	Kd (HSP90α [1]) [µM]	streptavidin pull-down of purified full-length HSP90α and NTD, competed by exces (HSP90α [2])
Cc1cc(C)n(-c2nc(NN=Cc3c[nH]c4ccccc34)nc(Nc3ccc(Br)cc3)n2)n1 [X66, 4-(2-((1H-indol-3-yl)methylene)hydrazinyl)-N-(4-bromophenyl)-6-(3,5-dimethyl-1H -pyrazol-1-yl)-1,3,5-triazin-2-amine]	5.3	–
Cc1cc(C)n(-c2nc(NN=Cc3cn(C(=O)CCCC[C@@H]4SC[C@@H]5NC(=O)N[C@@H]54)c4ccccc34)nc(Nc3ccc(Br)cc3)n2)n1 [Biotin-X66]	–	Biotin-X66 was able to isolate the recombinant human full-length protein and its N-terminal fragment, but not the C-terminal fragment
